# Measurements: patent EP4624482A1, “PYRIMIDOPYRIMIDINONE COMPOUND AND PHARMACEUTICAL COMPOSITION COMPRISING SAME” (Axceso Biopharma Co., Ltd., priority 2022, dated 2024)
# How the values were obtained:
# SIRT1 = SIRT1 expression in mouse vascular cells; type: cell-based
# [1] = system: tyrosine hydroxylase (TH); assay: Differentiation of pluripotent stem cells into dopaminergic neurons: TH expression; type: cell-based
# Description: Pluripotent stem cells were seeded in AggreWell plates (stemcell) at 5,000 cells/microwell and cultured for 5 days in E6 medium (GIBCO) to induce embryonic body (EB) formation. For neural rosette formation, EBs were seeded into 35 mm dishes in groups of 30 and cultured for 10 days in N2bF medium. The 35 mm dishes were used after being coated with 15 µg/ml of poly-L-ornithine (sigma) and 1 µg/ml of fibronectin (sigma). The N2Bf medium composition was DMEM/F12 (GIBCO), N2 supplement (stemcell) 1×, 10% NEAA (GIBCO), 55 µM betaMercaptoethanol (GIBCO), bFGF (peprotech) 20 ng/ml. For the formation of spherical neural masses (SNMs), rosette masses were sliced and cultured in petri dishes with N2bF medium. SNMs were no larger than 500 µM in size and were sliced and cultured for 3 to 4 passages. After subculture of SNM, the clumps were broken into small pieces using a tungsten mesh (Nilaco) for the neural progenitor cell (NPC) culture step, and then attached to a PLO/FN-coated dish and cultured in N2bF medium. To differentiate NPCs into dopaminergic neurons, the medium was replaced with an ITS-B27 medium after 2 days of NPC culture. The ITS-B27 medium composition was DMEM/F12 (GIBCO), D-(+)-glucose (sigma) 1.5 mg/ml, insulin (wako) 5 µg/ml, transferrin (wako) 50 µg/ml, selenite (sigma) 30 nM, GlutaMAX (GIBCO) 2.5%, and B27 (GIBCO) 1×. After 4 days of NPC culture, 200 ng/ml of Sonic Hedgehog and 100 ng/ml of FGF8 (peprotech) were added to the ITS-B27 medium. After 6 days of NPC culture, 200 ng/ml of Sonic Hedgehog, 20 ng/ml of GDNF, 20 ng/ml of BDNF (peprotech), 200 µM of ascorbic acid, and 500 µM of cAMP (sigma) were added to the ITS-B27 medium and cultured for approximately 5 weeks. The compound of formula (1a-1) was treated starting from the stage 2 days after NPC culture. […]
# The effect of the compound of formula (1a-1) on differentiation into neurons was evaluated by comparing the expression of tyrosine hydroxylase (TH) and dopamine transporter (DAT) depending on the presence or absence of treatment with the compound of formula (1a-1).
# [2] = system: APP/PS/Tau transgenic mice; assay: Intestinal length in AD-induced animal model; type: in vivo; conditions: 1 mg/kg intraperitoneally once every 3 days for 2 weeks
# Description: In neurodegenerative diseases (AD and PD), the length of the intestine tends to decrease as the disease progresses, so we looked for changes in intestinal length in an AD-induced animal model.
# APP/PS/Tau transgenic mice were used as an AD-induced animal model. The compound of formula (1a-1) was administered intraperitoneally once every 3 days at a concentration of 1 mg/kg to 12-week-old transgenic mice for 2 weeks, and the changes in intestinal length of the mice were measured after 1 and 4 weeks.
# SH-SY5Y cell lines = assay: Proliferation of SH-SY5Y cells (Parkinson's disease cell model), EZ-cytox; type: cell-based, human; conditions: 5 days
# Description: A medium containing DMEM/F12 (Hyclone), 10% FBS (Hyclone), and 1% penicillin-streptomycin (Hyclone) was used, and the medium was replaced every two days after seeding on a T75 plate. Subculture was performed when the cell density was 80-90%.
# Then, to determine the neuronal proliferation effect, the subcultured SH-SY5Y cells were seeded in 96 wells at 5 × 10^3 cells/well. After 1 day, the medium was replaced with a 5% FBS ratio, and the cells were treated with the compound of formula (1a-1) at concentrations serially diluted 2-fold from 500 nM to 15.6 nM and cultured for 5 days. The medium was replaced with 10% FBS containing the drug every other day. The culture medium with 10% FBS was used as a control. After 5 days, the amount of living cells was measured at 450 nm absorbance using EZ-cytox (DoGen) to compare the cell viability.
structure (smiles),measurement,setting,value
"CCCCCCCCCCCCCC[C@H]1OP(=O)(O)O[C@H]1[C@@H](N)CO.Cl [formula (1a-1), (4S,5R)-4-((S)-1-amino-2-hydroxyethyl)-2-hydroxy-5-tetradecyl-1,3,2-dioxaphosphoran-2-oxide hydrochloride]",concentration of maximum expression (SIRT1),SIRT1,100 ng/mL
same,TH expression at early time,"[1]; 3 weeks of treatment, normally increases after more than 5 weeks of differentiation",elevated
same,expression of TH,[1]; cell fluorescence immunostaining,increased
same,TH expression,[1]; western blot of 5-week differentiation sample,increased
same,length of the intestine at 4 weeks (6W) compared to 1 week (3W) after administration,[2],longer
same,intestinal length,[2]; compared to untreated AD-induced control mice,increased
same,proliferation of nerve cells,SH-SY5Y cell lines; 15.6 nM to 500 nM,increases with increasing concentrations
same,concentration of maximum proliferative potency,SH-SY5Y cell lines,~0.1 µM
